According to PubChem BioAssay (NCI):
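Each compound was tested at five concentrations against cells in 96-well plates for 48 hours. TGI: concentration producing complete growth inhibition.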

Experiments:
Test in all cases: DTP human tumour cell line panel, 48 h
HCT-116 colon = test system: HCT-116 colon
CCRF-CEM leukemia = test system: CCRF-CEM leukemia
CAKI-1 renal = test system: CAKI-1 renal
SF-295 CNS = test system: SF-295 CNS
MDA-MB-231 breast = test system: MDA-MB-231 breast
BT-549 breast = test system: BT-549 breast
SNB-19 CNS = test system: SNB-19 CNS
786-0 renal = test system: 786-0 renal
NCI/ADR-RES ovarian = test system: NCI/ADR-RES ovarian
NCI-H226 lung = test system: NCI-H226 lung
SF-539 CNS = test system: SF-539 CNS
SF-268 CNS = test system: SF-268 CNS
OVCAR-3 ovarian = test system: OVCAR-3 ovarian
HOP-92 NSCLC = test system: HOP-92 NSCLC
COLO 205 colon = test system: COLO 205 colon
HS 578T breast = test system: HS 578T breast
MOLT-4 leukemia = test system: MOLT-4 leukemia
SK-MEL-5 melanoma = test system: SK-MEL-5 melanoma
OVCAR-4 ovarian = test system: OVCAR-4 ovarian
OVCAR-8 ovarian = test system: OVCAR-8 ovarian
NCI-H460 lung = test system: NCI-H460 lung
HCT-15 colon = test system: HCT-15 colon
SK-MEL-2 melanoma = test system: SK-MEL-2 melanoma
NCI-H23 lung = test system: NCI-H23 lung
ACHN renal = test system: ACHN renal
DU-145 prostate = test system: DU-145 prostate
SN12C renal = test system: SN12C renal
OVCAR-5 ovarian = test system: OVCAR-5 ovarian
KM12 colon = test system: KM12 colon
HT29 colon = test system: HT29 colon
SW-620 colon = test system: SW-620 colon
MDA-N = test system: MDA-N
EKVX NSCLC = test system: EKVX NSCLC
SK-OV-3 ovarian = test system: SK-OV-3 ovarian
RPMI-8226 leukemia = test system: RPMI-8226 leukemia
MALME-3M melanoma = test system: MALME-3M melanoma
SR leukemia = test system: SR leukemia
RXF 393 renal = test system: RXF 393 renal
T-47D breast = test system: T-47D breast
UACC-62 melanoma = test system: UACC-62 melanoma
LOX IMVI melanoma = test system: LOX IMVI melanoma
A549 NSCLC = test system: A549 NSCLC
SK-MEL-28 melanoma = test system: SK-MEL-28 melanoma
M14 melanoma = test system: M14 melanoma
MDA-MB-435 = test system: MDA-MB-435
SNB-75 CNS = test system: SNB-75 CNS
U251 CNS = test system: U251 CNS
NCI-H522 lung = test system: NCI-H522 lung
MCF7 breast = test system: MCF7 breast
PC-3 prostate = test system: PC-3 prostate
HOP-62 NSCLC = test system: HOP-62 NSCLC
TK-10 renal = test system: TK-10 renal
K-562 leukemia = test system: K-562 leukemia
HL-60(TB) leukemia = test system: HL-60(TB) leukemia
IGROV1 ovarian = test system: IGROV1 ovarian
UACC-257 melanoma = test system: UACC-257 melanoma
HCC-2998 colon = test system: HCC-2998 colon
UO-31 renal = test system: UO-31 renal
A498 renal = test system: A498 renal

O=C1CCN2C(=N1)Sc1ccccc12
TGI (HCT-116 colon): > 100 µM | TGI (CCRF-CEM leukemia): > 100 µM | TGI (CAKI-1 renal): > 100 µM | TGI (SF-295 CNS): > 100 µM | TGI (MDA-MB-231 breast): > 100 µM | TGI (BT-549 breast): > 100 µM | TGI (SNB-19 CNS): > 100 µM | TGI (786-0 renal): > 100 µM | TGI (NCI/ADR-RES ovarian): > 100 µM | TGI (NCI-H226 lung): > 100 µM | TGI (SF-539 CNS): > 100 µM | TGI (SF-268 CNS): > 100 µM | TGI (OVCAR-3 ovarian): > 100 µM | TGI (HOP-92 NSCLC): > 100 µM | TGI (COLO 205 colon): > 100 µM | TGI (HS 578T breast): > 100 µM | TGI (MOLT-4 leukemia): > 100 µM | TGI (SK-MEL-5 melanoma): > 100 µM | TGI (OVCAR-4 ovarian): > 100 µM | TGI (OVCAR-8 ovarian): > 100 µM | TGI (NCI-H460 lung): > 100 µM | TGI (HCT-15 colon): > 100 µM | TGI (SK-MEL-2 melanoma): > 100 µM | TGI (NCI-H23 lung): > 100 µM | TGI (ACHN renal): > 100 µM | TGI (DU-145 prostate): > 100 µM | TGI (SN12C renal): > 100 µM | TGI (OVCAR-5 ovarian): > 100 µM | TGI (KM12 colon): > 100 µM | TGI (HT29 colon): > 100 µM | TGI (SW-620 colon): > 100 µM | TGI (MDA-N): > 100 µM | TGI (EKVX NSCLC): > 100 µM | TGI (SK-OV-3 ovarian): > 100 µM | TGI (RPMI-8226 leukemia): > 100 µM | TGI (MALME-3M melanoma): > 100 µM | TGI (SR leukemia): > 100 µM | TGI (RXF 393 renal): > 100 µM | TGI (T-47D breast): > 100 µM | TGI (UACC-62 melanoma): > 100 µM | TGI (LOX IMVI melanoma): > 100 µM | TGI (A549 NSCLC): > 100 µM | TGI (SK-MEL-28 melanoma): > 100 µM | TGI (M14 melanoma): > 100 µM | TGI (MDA-MB-435): > 100 µM | TGI (SNB-75 CNS): > 100 µM | TGI (U251 CNS): > 100 µM | TGI (NCI-H522 lung): > 100 µM | TGI (MCF7 breast): > 100 µM | TGI (PC-3 prostate): > 100 µM | TGI (HOP-62 NSCLC): > 100 µM | TGI (TK-10 renal): > 100 µM | TGI (K-562 leukemia): > 100 µM | TGI (HL-60(TB) leukemia): > 100 µM | TGI (IGROV1 ovarian): > 100 µM | TGI (UACC-257 melanoma): > 100 µM

C/C(=N/NC(=S)N1CC2CCC(CC2)C1)c1cnccn1
TGI (HCT-116 colon): 12.3 µM | TGI (CAKI-1 renal): 11.3 µM | TGI (SF-295 CNS): 12.1 µM | TGI (MDA-MB-231 breast): 16.8 µM | TGI (BT-549 breast): 16.7 µM | TGI (HCC-2998 colon): 13.6 µM | TGI (UO-31 renal): 2.02 µM | TGI (SNB-19 CNS): 14.2 µM | TGI (786-0 renal): 5.65 µM | TGI (NCI/ADR-RES ovarian): 0.054 µM | TGI (NCI-H226 lung): 1.33 µM | TGI (SF-539 CNS): 15.6 µM | TGI (SF-268 CNS): 11 µM | TGI (HOP-92 NSCLC): 12.7 µM | TGI (COLO 205 colon): 10.9 µM | TGI (HS 578T breast): 11.4 µM | TGI (MOLT-4 leukemia): 1.32 µM | TGI (SK-MEL-5 melanoma): 2.32 µM | TGI (OVCAR-4 ovarian): 5.59 µM | TGI (OVCAR-8 ovarian): 11.8 µM | TGI (NCI-H460 lung): 0.273 µM | TGI (HCT-15 colon): 16 µM | TGI (SK-MEL-2 melanoma): 8.75 µM | TGI (NCI-H23 lung): 13.7 µM | TGI (ACHN renal): 10.1 µM | TGI (DU-145 prostate): 13.8 µM | TGI (SN12C renal): 14.4 µM | TGI (OVCAR-5 ovarian): 24.6 µM | TGI (KM12 colon): 21 µM | TGI (HT29 colon): 12.2 µM | TGI (SW-620 colon): 12.4 µM | TGI (MDA-N): 28.7 µM | TGI (EKVX NSCLC): 12.3 µM | TGI (SK-OV-3 ovarian): 11.9 µM | TGI (RPMI-8226 leukemia): 4.95 µM | TGI (MALME-3M melanoma): 10.3 µM | TGI (RXF 393 renal): 7.78 µM | TGI (T-47D breast): 13.3 µM | TGI (UACC-62 melanoma): 6.08 µM | TGI (LOX IMVI melanoma): 11.4 µM | TGI (A549 NSCLC): 10.4 µM | TGI (SK-MEL-28 melanoma): 22.4 µM | TGI (M14 melanoma): 1.85 µM | TGI (MDA-MB-435): 16.4 µM | TGI (SNB-75 CNS): 7.02 µM | TGI (U251 CNS): 4.28 µM | TGI (NCI-H522 lung): 10.1 µM | TGI (MCF7 breast): 12.1 µM | TGI (PC-3 prostate): 8.46 µM | TGI (HOP-62 NSCLC): 14.9 µM | TGI (TK-10 renal): 16.7 µM | TGI (K-562 leukemia): 0.472 µM | TGI (HL-60(TB) leukemia): 3.18 µM | TGI (IGROV1 ovarian): 2.62 µM | TGI (UACC-257 melanoma): 14.3 µM | TGI (A498 renal): 14.2 µM
